Several values for one entry are separate records, joined by “and”; a condition that tells them apart may be missing. Equal entries are not always repeated.
Key:
[1] = Chemical stability in HBSS buffer (pH 7.4) / simulated gastric fluid; format: physicochemical; settings: chemical hydrolysis / HBSS buffer
Procedure: The chemical stability of prodrugs was evaluated using simulated gastric fluid (pH 1.2) and Hanks' Balanced Salt Solution (HBSS) buffer (pH 7.4). Briefly, prodrugs were spiked (10 μM) in respective solutions and incubated at 37° C. for 1 h. At predetermined time points (0, 30 and 60 min), aliquots of 100 μL were removed and diluted with 100 μL of water. Prodrug disappearance was monitored using the developed liquid chromatography and tandem mass spectrometry (LC/MS/MS) method described below.
(§1) For LC/MS/MS, prodrugs were separated with Thermo Scientific Accela UPLC system coupled to Accela open autosampler on an Agilent C18 (100×2.1 mm id) UPLC column. The autosampler was temperature controlled and operating at 10° C. The mobile phase used for the chromatographic separation was composed of acetonitrile/water containing 0.1% formic acid and was run at a flow rate of 0.5 mL/minute for 4.5 minutes using gradient elution. The column effluent was monitored using TSQ Vantage triple-quadrupole mass spectrometric detector, equipped with an electrospray probe set in the positive ionization mode. Samples were introduced into the ionization source through a heated nebulized probe (350° C.).
(§2) For quantification of compound remaining, disappearance of prodrugs was measured from ratio of peak areas of analyte to IS. Percentage remaining was calculated in the following manner: […]

[2] = Metabolic stability in mouse liver microsomes; format: in vitro ADME; settings: 10 μM, 37° C.
Summary of the method: (§3)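 Prodrugs at 10 μM were incubated in plasma or liver microsomes at 37° C, with triplicate samples taken at 0, 30 and 60 min and quenched in cold acetonitrile. Loss of prodrug was followed by LC/MS/MS in positive electrospray mode. Percent remaining came from the analyte-to-internal-standard peak-area ratio.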

[3] = Metabolic stability in human plasma; format: in vitro ADME; settings: 10 μM, 37° C.
Summary of the method: as §3

[4] = Metabolic stability in dog plasma; format: in vitro ADME; settings: 10 μM, 37° C.
Procedure: (§4) For metabolic stability, plasma (mouse, dog, monkey and human) and liver microsomes (mouse, dog, monkey and human) were used. For stability, prodrugs (10 μM) were spiked in each matrix and incubated in an orbital shaker at 37° C. At predetermined times (0, 30 and 60 min), 100 μL aliquots of the mixture in triplicate were removed and the reaction quenched by addition of three times the volume of ice cold acetonitrile spiked with the internal standard (losartan 5 μM). The samples were vortexed for 30 s and centrifuged 12000 g for 10 min. 50 μL supernatant diluted with 50 μL water was transferred to a 250 μL polypropylene vial sealed with a Teflon cap. Prodrug disappearance was monitored over time using a liquid chromatography and tandem mass spectrometry (LC/MS/MS) method as described below.
as §1, §2

[5] = Metabolic stability in monkey liver microsomes; format: in vitro ADME; settings: 10 μM, 37° C.
Procedure: as §4, §1, §2

[6] = Metabolic stability in monkey plasma; format: in vitro ADME; settings: 10 μM, 37° C.
Procedure: as §4, §1, §2

[7] = In vivo pharmacokinetics in mice, peroral, bioanalysis method 2 (2-PMPA release); settings: rodents and dogs
Procedure: Blood was obtained via cardiac puncture and tissue dissected at 0 min, 15 min, 30 min, 1 h, 2 h, and 4 h post dose (n=3 per time point). Single time point studies were conducted at 30 min (N=3) following dosing. Plasma was harvested from blood by centrifugation. Mean concentration-time data was used for pharmacokinetic (PK) analysis. Non-compartmental-analysis module in WinNonlin® (version 5.3) was used to assess pharmacokinetic parameters. Peak plasma concentrations (Cmax) and time to Cmax (Tmax) were the observed values. Area under the curve (AUC) was calculated by log-linear (p.o.) trapezoidal rule to the end of sample collection (AUClast) and extrapolated to infinity (AUC0-∞) by dividing the last quantifiable concentration by the terminal disposition rate constant (ke). […] The tissues were stored in −20° C. for 1 h and then homogenized. The calibration curve for the tissues was developed using naïve mouse brains from untreated animals as a matrix. For sciatic nerve, the nerves were weighed and homogenized in 50 μL methanol and the calibration curve was developed using naïve sciatic nerves from untreated animals as a matrix. The samples were vortexed and centrifuged. […] Supernatant was dried under a gentle stream of nitrogen at 45° C. and the residue reconstituted with 75 μL of acetonitrile and vortexed. 25 μL of derivatizing agent N-tert-Butyldimethysilyl-N-methyltrifluoro-acetamide (MTBSTFA) was added to microcentrifuge tubes, vortexed, and heated at ˜60 OC for 40 min. At the end of 40 min, the derivatized samples ˜75 μL were transferred to a 250 μL polypropylene vials and were analyzed via LC/MS/MS. Chromatographic analysis was performed using an Accela™ ultra high-performance system consisting of an analytical pump, and an autosampler coupled with TSQ Vantage mass spectrometer (Thermo Fisher Scientific Inc., Waltham Mass.). […] The total run time for each analyte was 5.0 min. Chromatographic analysis will be performed on Accela UPLC.

[8] = In vitro metabolic stability screen in plasma and liver subcellular fractions (results in words); format: in vitro ADME; settings: 60 min incubation
Summary of the method: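 Prodrugs at 10 μM were incubated at 37° C in plasma and liver microsomes from mouse, dog, monkey and human. Samples were taken at 0, 30 and 60 min and quenched in acetonitrile. Percent remaining was quantified by LC/MS/MS (positive ESI) as analyte/internal standard peak-area ratio.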

CC(C)OC(=O)OCOC(=O)C(CCC(=O)O)CP(=O)(OCOC(=O)OC(C)C)OCOC(=O)OC(C)C (stereo not drawn) [Compound 10]
chemical stability [1]: sufficient chemical stability
Percentage remaining ([2]; 0 min): 100%
Percentage remaining ([2]; 30 min): 1%
Percentage remaining ([2]; 60 min): 0%
Percentage remaining ([3]; 0 min): 100%
Percentage remaining ([3]; 30 min, listed as TRIS-POC): 102% and 64%
Percentage remaining ([3]; 60 min, listed as TRIS-POC): 77% and 48%
Percentage remaining ([4]; 0 min): 100%
Percentage remaining ([4]; 30 min): 67%
Percentage remaining ([4]; 60 min): 28%
Percentage remaining ([5]; 0 min): 100%
Percentage remaining ([5]; 30 min): 0%
Percentage remaining ([5]; 60 min): 0%
Percentage remaining ([6]; 0 min): 100%
Percentage remaining ([6]; 30 min): 50%
Percentage remaining ([6]; 60 min): 11%
oral bioavailability [7]: excellent oral bioavailability
in vitro metabolic stability [8]: instability in plasma and liver subcellular fractions

Reference: patent US9988407B2, “Prodrugs of prostate specific membrane antigen (PSMA) inhibitor” (THE JOHNS HOPKINS UNIVERSITY, priority 2014, dated 2018)
